Read-outs that look alike come from different tables or passages of the source.
Columns and labels:
[1] = tested on: Wistar Han (Crl:WI[Han]) rats; assay: Fertility and early embryonic development study in rats; assay type: in vivo, rat
[2] = as above; assay type: in vivo, rat; conditions: both, Wistar Han, rat, in vivo, oral
[3] = tested on: New Zealand White [Hra:(NZW)SPF] rabbits
rats = conditions: doses up to 1000 mg/kg/day; cited from earlier work
[4] = tested on: Wistar Han (Crl:WI[Han]) rats; assay: Rat embryo-fetal development
[5] = Rat embryo-fetal development; conditions: female, Wistar Han, rat, in vivo, oral
monkeys = conditions: doses up to 600 mg/kg/day; cited from earlier work
in vivo = conditions: female, New Zealand White, rabbit, 1000 mg/kg/day
[6] = 1000 mg/kg/day, GD 14 uterine examination

## CC(C)(C)[C@H](NC(=O)C(F)(F)F)C(=O)N1C[C@H]2[C@@H]([C@H]1C(=O)N[C@H](C#N)C[C@@H]1CCNC1=O)C2(C)C [NMV, nirmatrelvir]
[1]; 1000 mg/kg/day
  Precoital interval: 3.2 ± 2.9 days
  Preimplantation loss: 16.9 ± 22.8%
[1]; [6]
  Corpora lutea: 12.7 ± 1.6
  Implantation sites: 10.5 ± 3.1
  Live embryos: 9.6 ± 3.2
  Resorptions: 1.0 ± 0.8
[1]; 1000 mg/kg/day, of 20
  Number of pregnant females: 20
[1]; 1000 mg/kg/day, p ≤ 0.05
  Male Food Consumption, Premating Day 1−14: 20.9 ± 0.9 g/day
[1]; up to 1000 mg/kg/day
  Effects on male or female fertility: no NMV-related effects on male or female fertility
  Systemic toxicity in males and females: no evidence of systemic toxicity
[2]
  NOAEL: 1000 mg/kg/day
[3]; 100 mg/kg
  Corpora lutea: 9.7 ± 1.5
  Fetal weight (g)/Litter: 40.2 ± 3.0 g
  Implantation sites: 8.2 ± 1.7
  Maternal Body Weight (GD 29): 3.6 ± 0.2 kg
  Maternal Body Weight Gain (GD 7−29): 0.5 ± 0.1 kg
  Maternal Food Consumption (GD 7−29): 2983.9 ± 289.5 g
  Post-implantation loss: 3.3 ± 7.7%
  Pre-implantation loss: 14.4 ± 17.9%
[3]; 300 mg/kg
  Corpora lutea: 9.4 ± 2.1
  Fetal weight (g)/Litter: 40.3 ± 4.5 g
  Implantation sites: 8.6 ± 2.3
  Maternal Body Weight (GD 29): 3.6 ± 0.2 kg
  Maternal Body Weight Gain (GD 7−29): 0.4 ± 0.1 kg
  Maternal Food Consumption (GD 7−29): 2908.9 ± 500.1 g
  Post-implantation loss: 5.4 ± 7.4%
  Pre-implantation loss: 9.5 ± 10.2%
[3]; 1000 mg/kg
  Corpora lutea: 9.5 ± 1.7
  Implantation sites: 8.8 ± 1.6
  Maternal Body Weight (GD 29): 3.6 ± 0.2 kg
  Maternal Body Weight Gain (GD 7−29): 0.4 ± 0.1 kg
  Maternal Food Consumption (GD 7−29): 2703.0 ± 514.2 g
  Post-implantation loss: 3.2 ± 4.9%
  Pre-implantation loss: 6.4 ± 11.8%
[3]; 1000 mg/kg, p ≤ 0.01
  Fetal weight (g)/Litter: 37.7 ± 4.4 g
[3]; rabbit, 1000 mg/kg/day
  Mean maternal body weight gains and food consumption versus control: slightly lower than control
[3]; up to 1000 mg/kg/day
  Effects on embryo-fetal viability: no NMV-related effects on embryo-fetal viability
  Effects on external, visceral, or skeletal morphological development: no NMV-related effects on external, visceral, or skeletal morphological development
rats
  Adverse findings in 2-week general toxicology study: lack of adverse findings
[4]; 100 mg/kg
  Corpora lutea: 11.4 ± 1.1
  Fetal weight (g)/Litter: 5.3 ± 0.3 g
  Implantation sites: 9.9 ± 1.5
  Maternal Food Consumption (GD 6−21): 313.4 ± 32.0 g/day
  Post-implantation loss: 6.5 ± 15.4%
  Pre-implantation loss: 12.8 ± 11.1%
[4]; 300 mg/kg
  Corpora lutea: 11.5 ± 1.5
  Fetal weight (g)/Litter: 5.5 ± 0.3 g
  Implantation sites: 9.3 ± 2.4
  Maternal Food Consumption (GD 6−21): 322.3 ± 20.8 g/day
  Post-implantation loss: 6.8 ± 14.9%
  Pre-implantation loss: 18.7 ± 19.9%
[4]; 1000 mg/kg
  Corpora lutea: 11.5 ± 1.5
  Fetal weight (g)/Litter: 5.4 ± 0.3 g
  Implantation sites: 9.7 ± 2.6
  Maternal Food Consumption (GD 6−21): 309.5 ± 43.1 g/day
  Post-implantation loss: 9.7 ± 14.1%
  Pre-implantation loss: 15.3 ± 21.0%
[4]; all dose groups
  Effects on embryo-fetal viability: no NMV-related effects on embryo-fetal viability
[4]; any dose up to 1000 mg/kg/day
  Maternal toxicity: no NMV-related maternal toxicity
[4]; up to 1000 mg/kg/day
  Effects on fetal external, visceral, or skeletal morphological development: no effects on fetal external, visceral, or skeletal morphological development
[5]
  NOAEL: 1000 mg/kg/day
monkeys
  Adverse findings in 2-week general toxicology study: lack of adverse findings
In vivo
  NOAEL: 300 mg/kg/day
